# Columns and labels:
# mammalian cells = settings: cell culture studies; cited from earlier work
# [1] = Lactoperoxidase ABTS activity (UV-vis); assay type: biochemical; settings: 1000 units = amount of enzyme that oxidises 1 mmol of ABTS in 5 minutes at pH 6.0 and 35° C.
# Protocol: Lactoperoxidase was isolated from bovine milk. The lactoperoxidase activity (U/mg) was greater than 1000 units ABTS activity (determined using UV-vis). 1000 units ABTS activity (U): amount of enzyme that oxidises 1 mmol of ABTS in 5 minutes at pH 6.0 and 35° C. ABTS: 2,2′-azinobis-(3-ethyl benzthiazoline-6-sulphonic acid).
# [2] = system: pigs at weaning (scour/diarrhea); experiment: Pig trial 2: 240 weaned pigs, weight, health and cleanliness scores; assay type: in vivo
# Protocol: A further study involving 240 pigs was carried out with a higher dose of lactoperoxidase and potassium iodide. The pigs were weighed and allocated to the trail at weaning (approximately 28 days of age).
# The groups were homogenized with respect to group total weight and gender profile, and each group was divided into pens, with 5 pigs per pen. […] The pigs were weighed individually at the start of the study on day 7 and on day 14. Pigs were assessed each morning for general health, faeces was examined—to check for scour/diarrhea, and pigs per give a cleanliness score
# [3] = system: piglets weaned at 28 days (control of E. coli infection); experiment: Pig trial 1: weight gain and feed intake of weaned piglets; assay type: in vivo, pigs
# Protocol: A trial was conducted to determine the potential impact of the compositions of the invention for controlling E. coli infection and improving animal health.
# Piglets were weaned at 28 days of age with an average weight of 8.6±0.98 kg. At weaning (i.e. no longer suckling), litters were homogenized to a maximum of 14 pigs and assigned to either a control group (no additional feed component), to a first test group to which the composition of the invention was administered, and to a second test group to which zinc oxide was administered. Pigs were fed starter diets up until day 14 of the trial when the trial completed.
# Group weight and feed intake was recorded at day 0, 7 and 14 of the experiment.
# The composition of the invention comprised: 10 mg LPO and 8 mg KI and excipients. The composition was formulated as a powder. The composition was administered once daily with feed for 14 days. […] Zinc oxide was administered to the second test group at a concentration of 3000 ppm i.e. 3 g/kg of feed.
compound,measurement,setting,value
OO [hydrogen peroxide],cytotoxic concentrations,mammalian cells,0.05 to 0.58 mmol/L
Lactoperoxidase,lactoperoxidase activity (units ABTS activity),[1],greater than 1000 U/mg
[O]=[Zn] [zinc oxide],pig weight at the end of the 14 days,"[2]; PC: 3100 ppm ZnO diet, test: 20 mg LPO and 20 mg KI per day, NC diet approximately 0.8 kg less than PC",heaviest
same,cleanliness score,"[2]; score 1 (clean) to 4 (heavily contaminated with faecal material), 14 day study",lowest cleanliness score
same,Average body weight,[3]; Day 0 (baseline at weaning),8.5 kg
same,Average body weight,"[3]; Day 7, Test 1: 10 mg LPO and 8 mg KI daily, Test 2: zinc oxide 3000 ppm in feed",10.1 kg
same,Average body weight,"[3]; Day 14, Test 1: 10 mg LPO and 8 mg KI daily, Test 2: zinc oxide 3000 ppm in feed",13.7 kg
same,Average daily gain day 14,"[3]; piglets weaned at 28 days, Test 1: 10 mg LPO and 8 mg KI powder once daily with feed for 14 days, Test 2: zinc oxide 3000 ppm in feed",369 g/day
same,Average daily feed intake day 14,"[3]; piglets weaned at 28 days, Test 1: 10 mg LPO and 8 mg KI powder once daily, Test 2: zinc oxide 3000 ppm in feed",455 g/day

# Source: patent US12311014B1, “Composition and use thereof for the treatment of equine gastric ulcer syndrome” (priority 2024, dated 2025)
